In paper PMC6787163, “Systematic Dual Targeting of Dendritic Cell C-Type Lectin Receptor DC-SIGN and TLR7 Using a Trifunctional Mannosylated Antigen” (Frontiers in Chemistry, 2019):
Where “and” joins values, the source holds several entries; their conditions need not be identical. Equal values may be shown once.

How the values were obtained:
DC-SIGN S-ECD = target: T1, DC-SIGN S-ECD (Homo sapiens, UniProt Q9NNX6); experiment: SPR direct interaction assay on oriented DC-SIGN S-ECD surface; format: binding; conditions: for Kd: SPR direct interaction, oriented tetrameric DC-SIGN ECD surface, apparent Kd, read-out: Kdapp
T1 construct: The ECD of DC-SIGN (residues 66–404) was overexpressed and purified as previously described; made in house
T1 sequence (Q9NNX6 66-404): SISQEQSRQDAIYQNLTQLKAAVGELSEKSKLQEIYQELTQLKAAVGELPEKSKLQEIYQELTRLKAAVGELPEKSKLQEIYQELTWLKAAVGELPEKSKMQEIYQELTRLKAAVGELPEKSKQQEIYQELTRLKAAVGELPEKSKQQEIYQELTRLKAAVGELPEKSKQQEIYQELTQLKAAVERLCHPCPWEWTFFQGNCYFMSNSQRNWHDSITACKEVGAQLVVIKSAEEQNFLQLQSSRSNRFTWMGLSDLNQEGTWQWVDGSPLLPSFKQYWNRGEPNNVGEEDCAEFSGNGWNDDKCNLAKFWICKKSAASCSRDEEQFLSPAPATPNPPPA
Procedure: (§1) The affinity of the clusters for the extracellular domain (ECD) of the DC-SIGN receptor (DC-SIGN ECD) was estimated via surface plasmon resonance (SPR) assays (Tabarani et al., [2009]). The apparent Kd was calculated in direct interaction mode using a surface functionalized in an oriented manner with DC-SIGN ECD. In this assay, tetrameric DC-SIGN ECD is attached to the surface of the sensor chip via the N-terminus of its neck oligomerization domain, thus presenting its four carbohydrate recognition domains toward the solvent, realistically mimicking the presentation of the receptor on cell surface (Porkolab et al., [2019]). For some of the low affinity ligands, in the mM range, it was not possible to determine their affinity with this assay, and therefore a competition experiment was performed providing IC50 values (Timpano et al., [2008]) (Figure 3A). […] When comparing equivalent clusters, the α1,2-di-mannoside (B series) bound with the highest affinity (Figure 3A). […] A potential explanation for this effect could be that the spacing of clusters is more important for the larger tri-mannosides.
The direct interaction experiments were executed on a T200 Biacore with a CM3 series S sensor chip. Contrary to the competition assay described above, in this test, DC-SIGN ECD used harbors a StreptagII in its N-terminus (DC-SIGN S-ECD) to allow its capture and functionalization onto the surface in an oriented manner. Flow cells were functionalized as previously described (Porkolab et al., [2019]). Briefly, after EDC/NHS activation, flow cells were functionalized with streptactin protein in a first step. Flow cell 1 was used as control, while other flow cells were, in a second round of activation, functionalized with 100 μg/mL of a DC-SIGN S-ECD up to a final density ranging between 2,500 and 3,000 RU, via tag specific capture and linkage by amine coupling chemistry simultaneously. The compounds were injected in running buffer of 25 mM Tris pH 8, 150 mM NaCl, 4 mM CaCl2, 0.05% Tween 20 onto the surface at increasing concentrations with a flow rate of 30 μL/min. The ligand titration led to the determination of an apparent Kd value. The data was analyzed in BIAcore BIAevaluation software for direct interaction 1:1 calculation assuming that the Kd will reflect the affinity of the ligands (glycoclusters) for the DC-SIGN oriented surface used as a whole.

DC-SIGN on moDC = experiment: Binding of biotinylated mannoside library to moDCs by flow cytometry; format: cell-based, human; conditions: 10 μM biotinylated cluster, 30 min at 4°C, streptavidin staining
Procedure: Next, we assessed the binding of our clusters to cellular DC-SIGN using moDCs (Figure 3B, Supplementary Figure 1B). To this end, binding of the clusters a1–a6, b1–b6, c1–c6, d1–d6, and e1–e6, decorated with a biotin handle, was determined by flow cytometry. Clusters were bound to moDCs for 30 min at 4°C. By staining using fluorophore-conjugated streptavidin and washing at 4°C, the bound clusters could be quantified by flow cytometry. […] In control experiments ligand binding to DC-SIGN was inhibited using a blocking anti-DC-SIGN antibody (Supplementary Figure 1C).
Approximately 10^5 day 5 moDCs were washed and resuspended in 100 μL culture medium (pre-cooled to 4°C). 20 μg/mL AZN-D1 (anti-DC-SIGN, in house Geijtenbeek et al., [2002]) or purified mouse anti-human CD206 antibody (Clone 19.2, BD Bioscience) was added to the moDCs and pre-incubated for 45 min on ice. Subsequently, 10 μM of the biotinylated mannoside clusters or 1 μg/mL of Lewis^Y-conjugated polyacrylamide (positive control) was added, and incubated for 30 min at 4°C. Cells were then washed with pre-cooled PBS (4°C), and stained with Alexa647-labeled streptavidin (Invitrogen^TM) in PBS supplemented with 0.5% BSA and 0.02% NaN3 (PBA) for 30 min at 4°C. Upon washing in ice-cold PBA and fixation in PBS with 0.5% PFA, the fluorescence was measured by flow cytometry (CyAn™ ADP with Summit™ Software), and further analyzed using FlowJo v10.

moDCs = experiment: Internalization of biotinylated hexavalent clusters by moDCs (flow cytometry); format: cell-based, human
Procedure: For the internalization, the moDCs were incubated with clusters b6, c6, d6, and e6 for 1 h at 4°C, where after unbound ligands were washed away with ice-cold medium. Warm medium was added to the moDCs, and samples were taken at the indicated time points and put on ice. Upon staining the moDCs with fluorophore-conjugated streptavidin, we could measure the signal loss of the membrane via flow cytometry. To exclude ligand-receptor dissociation before internalization, the moDCs were fixed under gentle conditions, hereby inhibiting receptor-mediated endocytosis. On fixed moDCs the clusters remained at the surface, as no signal loss could be detected (Supplementary Figure 1D). […] The di-mannoside clusters (b6, c6, and d6) were internalized relatively fast, with a 50% uptake within 5 min (Figure 5B). The tri-mannoside cluster e6 however remained longer at the membrane surface and only a 25% uptake was seen after 30 min. Similar results were seen using a pH-sensitive fluorophore. In acidic environments, such as the endosomes and lysosomes, the fluorescence of this dye increases. Pre-complexed clusters mirrored the accelerated uptake of the di-mannoside clusters over the e6 cluster (Supplementary Figure 1E). Although the DC-SIGN mediated uptake mechanism is known (Cambi et al., [2009]), the initiation trigger for endocytosis upon DC-SIGN-ligand binding remains unclear. Recognition of the di-mannoside clusters could induce signaling leading to accelerated uptake, whereas the tri-mannoside cluster could trigger a different signaling pathway. Nonetheless, the clusters harboring the smaller mannosides are preferred. Although the binding affinity of the clusters ranged from 0.9 to 6.6 μM, the di-mannosides induce more rapid DC-SIGN internalization over the tri-mannosides, and can thus increase intracellular peptide concentrations more efficiently for further antigen processing and presentation.
Immature day 5 moDCs were harvested and washed with cold HBSS (Thermo Fischer), after which half of the moDCs were gently fixed for 20 min at RT with 1% PFA in PBS. Afterwards, 20 μM of the different biotinylated mannose-clusters in cold HBSS were added. The moDCs were incubated for 1 h on ice, and washed in cold HBSS. Subsequently, warm HBSS was added to the cells, and cells were incubated at 37°C in a shaking heating block. At the indicated time points, a sample of the cells was taken and put on ice. After the last time point, the cells were stained with Streptavidin-Alexa647 (Thermo Fisher), measured using flow cytometry (CyAn™ ADP with Summit™ Software), and further analyzed using FlowJo v10. The same procedure was used for internalization with pHrodo^TM Red Avidin (Thermo Fischer). The different biotinylated mannose-clusters were however incubated with pHrodo-Avidin (ratio 2:1) for 15 min at 37°C, prior to moDC exposure. The fluorescence upon internalization was measured using flow cytometry (BD LSRFortessa™ X-20 with FACSDiva Software), and further analyzed using FlowJo v10.

DC-SIGN ECD = target: T2, DC-SIGN ECD (Homo sapiens, UniProt Q9NNX6); experiment: SPR competition (inhibition) assay, DC-SIGN ECD on BSA-mannotriose surface; format: binding; conditions: DC-SIGN ECD 20 μM
T2 construct: The ECD of DC-SIGN (residues 66–404) was overexpressed and purified as previously described; made in house
T2 sequence (Q9NNX6 66-404): T1 sequence (Q9NNX6 66-404)
Procedure: as §1
The ECD of DC-SIGN (residues 66–404) was overexpressed and purified as previously described (Tabarani et al., [2009]). The DC-SIGN S-ECD construct used for direct interaction experiment (see below) has been overexpressed and purified as described elsewhere (Porkolab et al., [2019]). The SPR competition experiments were performed on a BIAcore T200 using a CM3 series S sensor chip. Flow cells were activated as previously described (Halary et al., [2002]). Flow cell 1 was functionalized with BSA, blocked with ethanolamine and subsequently used as a control surface. Flow cells 2 and 3 were treated with BSA-Man α1-3[Manα1-6]Man (Dextra) (60 μg/mL) in 10 mM NaOAc pH 4 and blocked with ethanolamine. The final densities on flow cells 2 and 3 were about 2,100 RU. The affinities of the various compounds for DC-SIGN ECD were evaluated via an established inhibition assay (Andreini et al., [2011]) in which DCSIGN ECD was injected at 20 μM alone or in the presence of increasing concentration of inhibitors. Injections were performed at 5 μL/min using 25 mM Tris-HCl pH 8, 150 mM NaCl, 4 mM CaCl2, 0.05% P20 surfactant as running buffer. The surface was regenerated by the injection of 50 mM EDTA. The data was analyzed in BIAcore BIAevaluation software using four parameter equation.

| binding affinity for DC-SIGN relative to B6 (fold lower) (DC-SIGN S-ECD) [fold] | Kd (DC-SIGN S-ECD) | binding to DC-SIGN on moDC (DC-SIGN on moDC) | IC50 (DC-SIGN ECD) [µM] | SMILES | internalization by moDCs (loss of surface streptavidin signal) (moDCs; 20 μM cluster, live moDCs) | uptake by immature moDCs (moDCs; after 30 min at 37°C, 20 μM cluster) [%] | internalization by moDCs (pHrodo-avidin fluorescence increase) (moDCs; clusters pre-complexed with pH-sensitive dye) |
| --- | --- | --- | --- | --- | --- | --- | --- |
| 3 | 2.78 µM and 2.7 µM | did not observe an increase in binding |  | CC(=O)N[C@@H](CCCCn1cc(CO[C@H]2O[C@H](CO[C@H]3O[C@H](CO)[C@@H](O)[C@H](O)[C@@H]3O)[C@@H](O)[C@H](O[C@H]3O[C@H](CO)[C@@H](O)[C@H](O)[C@@H]3O)[C@@H]2O)nn1)C(=O)N[C@@H](CCCCn1cc(CO[C@H]2O[C@H](CO[C@H]3O[C@H](CO)[C@@H](O)[C@H](O)[C@@H]3O)[C@@H](O)[C@H](O[C@H]3O[C@H](CO)[C@@H](O)[C@H](O)[C@@H]3O)[C@@H]2O)nn1)C(=O)N[C@@H](CCCCn1cc(CO[C@H]2O[C@H](CO[C@H]3O[C@H](CO)[C@@H](O)[C@H](O)[C@@H]3O)[C@@H](O)[C@H](O[C@H]3O[C@H](CO)[C@@H](O)[C@H](O)[C@@H]3O)[C@@H]2O)nn1)C(=O)N[C@@H](CCCCn1cc(CO[C@H]2O[C@H](CO[C@H]3O[C@H](CO)[C@@H](O)[C@H](O)[C@@H]3O)[C@@H](O)[C@H](O[C@H]3O[C@H](CO)[C@@H](O)[C@H](O)[C@@H]3O)[C@@H]2O)nn1)C(=O)N[C@@H](CCCCn1cc(CO[C@H]2O[C@H](CO[C@H]3O[C@H](CO)[C@@H](O)[C@H](O)[C@@H]3O)[C@@H](O)[C@H](O[C@H]3O[C@H](CO)[C@@H](O)[C@H](O)[C@@H]3O)[C@@H]2O)nn1)C(=O)N[C@@H](CCCCn1cc(CO[C@H]2O[C@H](CO[C@H]3O[C@H](CO)[C@@H](O)[C@H](O)[C@@H]3O)[C@@H](O)[C@H](O[C@H]3O[C@H](CO)[C@@H](O)[C@H](O)[C@@H]3O)[C@@H]2O)nn1)C(=O)NCC(=O)N[C@@H](CCCCN)C(N)=O [E6] | remains longer at the surface | 25 | endocytosed at lower rate |
|  | 7.82 ± 0.44 µM | significantly higher binding |  | CC(=O)N[C@@H](CCCCn1cc(CO[C@H]2O[C@H](CO)[C@@H](O)[C@H](O)[C@@H]2O)nn1)C(=O)N[C@@H](CCCCn1cc(CO[C@H]2O[C@H](CO)[C@@H](O)[C@H](O)[C@@H]2O)nn1)C(=O)N[C@@H](CCCCn1cc(CO[C@H]2O[C@H](CO)[C@@H](O)[C@H](O)[C@@H]2O)nn1)C(=O)N[C@@H](CCCCn1cc(CO[C@H]2O[C@H](CO)[C@@H](O)[C@H](O)[C@@H]2O)nn1)C(=O)N[C@@H](CCCCn1cc(CO[C@H]2O[C@H](CO)[C@@H](O)[C@H](O)[C@@H]2O)nn1)C(=O)N[C@@H](CCCCn1cc(CO[C@H]2O[C@H](CO)[C@@H](O)[C@H](O)[C@@H]2O)nn1)C(=O)NCC(=O)N[C@@H](CCCCN)C(N)=O [A6] |  |  |  |
|  |  |  | 2340 ± 109 | CC(=O)N[C@@H](CCCCn1cc(CO[C@H]2O[C@H](CO)[C@@H](O)[C@H](O)[C@@H]2O[C@H]2O[C@H](CO)[C@@H](O)[C@H](O)[C@@H]2O)nn1)C(=O)NCC(=O)N[C@@H](CCCCN)C(N)=O [B1] |  |  |  |
